{"source": "patent US20220340955A1", "about": "“METHODS FOR DIAGNOSING AND TREATMENT MONITORING OF ADNP-DEFICIENT PATIENTS” (RAMOT AT TEL-AVIV UNIVERSITY LTD., priority 2019, published 2022)", "key": {"[1]": {"tested_on": "murine intestinal microbiota", "experiment": "Murine fecal microbiota analysis (qRT-PCR, 16S rRNA gene) in Adnp+/− mouse model", "assay_type": "in vivo", "experimental": "(§1) All procedures involving animals in the Adnp-mutated mouse model were approved by the Animal Care and Use Committee of Tel Aviv University and the Israeli Ministry of Health. Adnp heterozygous mice (Adnp^+/−) on an ICR background (an outbred mouse line), a model for the ADNP syndrome (Hacohen-Kleiman et al. 2018), were housed in a 12-h light/12-h dark cycle facility with free access to rodent chow and water. Genotyping was performed by Transnetyx (Memphis, Tenn.). After genotyping, the mice were housed in separate cages based on sex, genotype and treatment (up to five mice per cage), for two weeks prior to beginning of NAP treatment.\n(§2) NAP peptide was custom made as described in (Hacohen-Kleiman et al. 2018). Prior to behavioral tests, intranasal treatment was administered daily to 1-month-old male and female mice (0.5 μg/5 μl/mouse/dose). For intranasal administration, the peptide was dissolved in a vehicle solution, termed DD, in which each milliliter included 7.5 mg of NaCl, 1.7 mg of citric acid monohydrate, 3 mg of disodium phosphate dihydrate, and 0.2 mg of benzalkonium chloride solution (50%). Each mouse was handheld in a semi-supine position with nostrils facing the investigator. A pipette tip was used to administer 5 μl/two nostrils. The mouse was handheld until the solution was entirely absorbed (˜10 s). Nasal NAP application was performed daily, once a day, for 45 days (5 days a week). After 45 days of treatment, in days of scheduled behavioral tests, NAP was applied 2 h before the test.\nFecal pellets (1-2/mice) were collected 45 days after the beginning of treatment (NAP or DD) and stored at −80° C. until DNA purification procedures. The samples were thawed on ice mixed with 400 μl of sterile PBS/sample followed by mechanical disruption of the sample using a BeadBug microtube homogenizer (Daniel Biotech, Rehovot, Israel) for 2 minutes at 4,000 rpm. A 25 μl sample of lysozyme solution (20 mg/ml) was added, and the samples were incubated with shaking for 30 min at 37° C. on a thermo shaker racking platform. Next, 20 μl proteinase K (20 mg/ml) was included and the samples were thoroughly mixed with 400 μl of sterile lysis buffer (20 mM Tris HCl, 300 mM NaCl, 400 mM EDTA and 1% SDS) and incubated with shaking for 60 min at 56° C. on a thermo shaker racking platform. Next, 300 mg sterile zirconium beads and 150 μl of phenol was added to the samples followed by homogenization (twice for 40 sec. at 4,000 rpm, Daniel biotech, Rehovot, Israel). Then, 150 μl of CI-solution (chloroform-isoamyl alcohol 24:1) was added, mixed and submitted for centrifugation 13,000 rpm at room temperature for 5 minutes, Eppendorf Centrifuge 5417R (Eppendorf, Hamburg, Germany). A 600 μl volume of supernatant was removed and placed in a sterile 2 mL Eppendorf tube. 150 μl of CI-solution was then included and the samples were subjected to centrifugation as above. A 400 μl of aqueous, clear top phase was removed and placed in a sterile 2 mL Eppendorf tube. Then, the 400 μl of DNA solution was mixed with 100 μl of precipitation solution (40 mM EDTA 1.2M sodium acetate and 4 mg/ml glycogen). 1.3 mL of ice-cold 100% ethanol was added, the samples were then mixed and stored over night at −20° C. for DNA precipitation followed by centrifugation (13,000 rpm) at 4° C. The supernatant was discarded and the pellet washed with 500 μl ice-cold 70% ethanol followed by centrifugation for 5 minutes at 13,000 rpm, 4° C. (this step was repeated twice). The pellet was dried in the Speed Vac (Eppendorf Concentrator 5301) for 15 minutes and then re-suspended in 100 μl sterile water. Next, the samples were mixed on the shaker for 10 minutes at room temperature. In the next step, the samples were further purified using Qiagen Purification Kit according to the manufacturer's instructions ([…], Hilden, Germany). DNA was eluted in 100 μl sterile water and stored at −20° C. for long storage. […]"}, "Adnp+/− mice [2]": {"tested_on": "Adnp+/− mice", "experiment": "Open field behavior of Adnp+/− mice", "assay_type": "in vivo, mouse", "experimental": "as §1, §2\nThe test provides a unique opportunity to systematically assess novel environment exploration, general locomotor activity, and anxiety-related behavior in rodents. […] The distance moved and time spent in the entire open field, as well as in its inner defined quadrants (center, border) was recorded using the EthoVision XT video tracking system and software (Noldus Inc. Leesburg, VA). […]"}, "[3]": {"experiment": "Body weight of Adnp+/− mice", "assay_type": "in vivo, mouse", "conditions": "male Adnp+/− cohort, NAP treatment", "experimental": "as §1\nas §2, with “Nasal NAP application was performed daily, once a day, for 45 days (5 days a week). After 45 days of treatment, in days of scheduled behavioral tests, NAP was applied 2 h before the test.” left out"}, "Adnp p.Tyr718* mice": {"tested_on": "Adnp p.Tyr718* mice", "experiment": "Visual evoked potential in CRISPR/Cas9 Adnp p.Tyr718* mice", "assay_type": "in vivo, mouse", "conditions": "Adnp p.Tyr718* mice (discovered in males), NAP treatment", "from_the_text": "We have developed another Adnp mutated mouse model using CRISP/Cas9 technology. The mice carry the most prevalent ADNP syndrome mutation (e.g. Adnp p.Tyr718* in the mouse corresponding to ADNP pTyr719* in the human). […] Monitoring visual evoked potential provides an objective observation of aberrant ADNP activity on one hand and its correction by treatment, e.g. by NAP peptide on another hand. Given the results in Example 1, gut microbiota samples are now being analyzed and are correlated also to visual evoked potential responses of males and females, coupling biomarkers for better diagnostics and clinical monitoring. The following bacteria in gut microbiota are tested and correlated with changes in visual evoked potential in subjects having aberrant ADNP activity: Bifidobacterium, Clostridium, Bacteroides, Faecalibacterium, Eubacterium, Ruminococcus, Peptococcus, Peptostreptococcus, Parabacteroides, Escherichia coli, Verrucomicrobia, Lactobacillus, Clostridium coccoides group, Mouse Intestinal Bacteroides (MIB) Enterococcus genus (gEncocc) and Clostridium Cluster IV (sgClep)."}, "Adnp+/− mice [4]": {"tested_on": "Adnp+/− mice", "conditions": "exogenous administration of NAP; cited from earlier work"}, "[5]": {"tested_on": "human microbiota-harboring mice suffering from subacute ileitis", "conditions": "gut inflammation model; cited from earlier work"}, "[6]": {"conditions": "female Adnp+/− mice, fecal samples, intranasal NAP 0.5 μg/mouse daily, 45 days"}, "[7]": {"conditions": "females, genotype and NAP treatment effect"}, "[8]": {"conditions": "male Adnp+/− mice, fecal samples, intranasal NAP 0.5 μg/mouse daily, 45 days"}, "[9]": {"conditions": "males, genotype and NAP treatment effect"}}, "data": [{"sequence": "NAPVSIPQ", "values": [{"measurement": "Changes in microbiota (overall effect of NAP treatment)", "setting": "[1]; Adnp deficient mice", "value": "partially reverses"}, {"measurement": "Total Eubacterial loads", "setting": "[1]; female Adnp+/+ mice, fecal samples, NAP treated (data not shown)", "value": "essentially lower total Eubacterial loads"}, {"measurement": "Trending genotype increases in microbiota groups corrected by NAP treatment", "setting": "[1]; female Adnp+/− mice", "value": "significantly corrected two trending genotype increases"}, {"measurement": "Clostridium coccoides group (Coer) abundance", "setting": "[1]; [6]", "value": "significant NAP-dependent decreases"}, {"measurement": "Enterococcus genus (gEncocc) numbers", "setting": "[1]; [6]", "value": "lower fecal Enterococcus genus (gEncocc) numbers"}, {"measurement": "Bacteroides/Prevotella spp (Bac) abundance", "setting": "[1]; [7]", "value": "neither affected by genotype nor by NAP treatment"}, {"measurement": "Bifidobacterium genus (BIF) abundance", "setting": "[1]; [7]", "value": "neither affected by genotype nor by NAP treatment"}, {"measurement": "Enterobacteriaceae (Entero) abundance", "setting": "[1]; [7]", "value": "neither affected by genotype nor by NAP treatment"}, {"measurement": "Eubacteriaceae (EubV3) abundance", "setting": "[1]; [7]", "value": "neither affected by genotype nor by NAP treatment"}, {"measurement": "Mouse Intestinal Bacteroides (MIB) abundance", "setting": "[1]; [7]", "value": "neither affected by genotype nor by NAP treatment"}, {"measurement": "Clostridium coccoides group (Coer) intestinal numbers", "setting": "[1]; male Adnp+/+ controls, NAP treated compared to placebo treated (data not shown)", "value": "higher intestinal numbers"}, {"measurement": "Genotype affected microbiota groups whose deficit was reversed by NAP treatment", "setting": "[1]; male Adnp+/− mice", "value": "four out of five"}, {"measurement": "Bifidobacterium genus (BIF) abundance", "setting": "[1]; [8]", "value": "decreased to control levels"}, {"measurement": "Clostridium coccoides group (Coer) abundance", "setting": "[1]; [8]", "value": "except for Clostridium coccoides group (Coer) decreased to control levels"}, {"measurement": "Lactobacillus group (Lacto) abundance", "setting": "[1]; [8]", "value": "decreased to control levels"}, {"measurement": "Mouse Intestinal Bacteroides (MIB) abundance", "setting": "[1]; [8]", "value": "decreased to control levels"}, {"measurement": "Total Eubacterial loads (EubV3)", "setting": "[1]; [8]", "value": "decreased to control levels"}, {"measurement": "Bacteroides/Prevotella spp (Bac) abundance", "setting": "[1]; [9]", "value": "neither affected by genotype nor by NAP treatment"}, {"measurement": "Clostridium Cluster IV (sgClep) abundance", "setting": "[1]; [9]", "value": "neither affected by genotype nor by NAP treatment"}, {"measurement": "Enterobacteriaceae (Entero) abundance", "setting": "[1]; [9]", "value": "neither affected by genotype nor by NAP treatment"}, {"measurement": "Enterococcus genus (gEncocc) abundance", "setting": "[1]; [9]", "value": "neither affected by genotype nor by NAP treatment"}, {"measurement": "Behavioral changes (overall effect of NAP treatment)", "setting": "Adnp+/− mice [2]; Adnp deficient mice", "value": "partially reverses"}, {"measurement": "Time spent in the center area (open field)", "setting": "Adnp+/− mice [2]; Adnp+/+, Adnp+/− and NAP treated Adnp+/− mice, FIG. 3B", "value": "did not reveal significant changes"}, {"measurement": "Frequency entrance to the center area (open field)", "setting": "Adnp+/− mice [2]; untreated male Adnp+/− mice vs Adnp+/+ (p<0.01) and vs NAP treated Adnp+/− mice (p<0.05), FIG. 3A", "value": "significantly higher frequency entrance in to the center area compared to Adnp^+/+ mice and NAP treated Adnp^+/− mice"}, {"measurement": "Body weight", "setting": "[3]", "value": "increased weight"}, {"measurement": "Aberrant visual evoked potential patterns", "setting": "Adnp p.Tyr718* mice", "value": "rapidly corrected"}, {"measurement": "Behavioral and developmental defects", "setting": "Adnp+/− mice [4]", "value": "at least partially reverse behavioral and developmental defects"}, {"measurement": "Anti-inflammatory effects", "setting": "[5]", "value": "anti-inflammatory NAP effects were observed"}]}]}
